According to PubChem BioAssay AID330 (DTP/NCI, 2004):
Several values for one entry are separate records, joined by “and”; a condition that tells them apart may be missing. Equal values may be shown once. Inconclusive results and toxic doses are left out.

Test system: P388 leukemia ip, CD2F1 mice, survival T/C
Experiment: NCI In Vivo Anticancer Drug Screen. Data for tumor model P388 Leukemia (intraperitoneal) in CD2F1 (CDF1) mice
Conditions: endpoint: median survival time, higher = longer survival
How it was run: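 Mice carrying the transplanted tumor received test compound or vehicle. Survival was recorded in each group, and the value is the treated-group measurement divided by that of the vehicle-treated control group.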

[1] = dose: 12.5 mg/kg/injection, schedule: Q01DX005 (ip), vehicle: Klucel (hydroxypropylcellulose) (HPC)
[2] = dose: 25.0 mg/kg/injection, schedule: Q01DX005 (ip), vehicle: Klucel (hydroxypropylcellulose) (HPC)
[3] = dose: 50.0 mg/kg/injection, schedule: Q01DX005 (ip), vehicle: Klucel (hydroxypropylcellulose) (HPC)
[4] = dose: 100.0 mg/kg/injection, schedule: Q01DX001 (ip), vehicle: saline with Tween-80
[5] = dose: 200.0 mg/kg/injection, schedule: Q01DX001 (ip), vehicle: saline with Tween-80
[6] = dose: 100.0 mg/kg/injection, schedule: Q01DX005 (ip), vehicle: Klucel (hydroxypropylcellulose) (HPC)
[7] = dose: 25.0 mg/kg/injection, schedule: Q01DX009 (ip), vehicle: Klucel (hydroxypropylcellulose) (HPC)
[8] = dose: 50.0 mg/kg/injection, schedule: Q01DX009 (ip), vehicle: Klucel (hydroxypropylcellulose) (HPC)
[9] = dose: 50.0 mg/kg/injection, schedule: Q01DX009 (ip), vehicle: saline with Tween-80
[10] = dose: 100.0 mg/kg/injection, schedule: Q01DX009 (ip), vehicle: saline with Tween-80
[11] = dose: 200.0 mg/kg/injection, schedule: Q01DX009 (ip), vehicle: saline with Tween-80
[12] = dose: 25.0 mg/kg/injection, schedule: Q01DX009 (ip), vehicle: saline
[13] = dose: 50.0 mg/kg/injection, schedule: Q01DX009 (ip), vehicle: saline
[14] = dose: 100.0 mg/kg/injection, schedule: Q01DX009 (ip), vehicle: saline
[15] = dose: 200.0 mg/kg/injection, schedule: Q01DX009 (ip), vehicle: saline
[16] = dose: 200.0 mg/kg/injection, schedule: Q01DX005 (ip), vehicle: Klucel (hydroxypropylcellulose) (HPC)
[17] = dose: 100.0 mg/kg/injection, schedule: Q01DX009 (ip), vehicle: Klucel (hydroxypropylcellulose) (HPC)

With `CCCc1cc(=O)n(-c2ccc([N+](=O)[O-])cn2)c(=S)[nH]1` the T/C [1] was 95 % of control, the T/C [2] was 106 % of control and the T/C [3] was 101 % of control and 116 % of control.
With `CC(/C=C/c1ccco1)=N\O` the T/C (dose: 12.5 mg/kg/injection, schedule: Q01DX009 (ip), vehicle: other) was 104 % of control, the T/C (dose: 25.0 mg/kg/injection, schedule: Q01DX009 (ip), vehicle: other) was 100 % of control and the T/C (dose: 50.0 mg/kg/injection, schedule: Q01DX009 (ip), vehicle: other) was 91 % of control.
`Nc1cccc(OCCOc2cccc(S(=O)(=O)F)c2)c1` was tested, and the T/C (dose: 50.0 mg/kg/injection, schedule: Q01DX001 (ip), vehicle: saline with Tween-80) was 109 % of control, the T/C [4] was 100 % of control and the T/C [5] was 100 % of control.
For `O=C(O[C@H]1CCN2C[C@H]3C[C@H](CN4C(=O)CCC[C@H]34)[C@@H]2C1)c1ccc(O)cc1`, the T/C (dose: 6.25 mg/kg/injection, schedule: Q01DX005 (ip), vehicle: Klucel (hydroxypropylcellulose) (HPC)) was 103 % of control, the T/C [1] was 106 % of control and the T/C [2] was 104 % of control.
In the case of `CC1(C)[S][Sn]2[NH]C1C(=O)[O]2` (stereo not given), the T/C [3] is reported as 98 % of control and the T/C [6] is reported as 94 % of control.
`Clc1ccc2c(c1)C(c1ccccc1)=NCc1nncn1-2` was tested, and the T/C [7] was 103 % of control and the T/C [8] was 95 % of control.
With `CC1=CC(=C(c2ccc(N)cc2)c2ccc(N)cc2)C=CC1=N` the T/C (dose: 1.56 mg/kg/injection, schedule: Q01DX005 (ip), vehicle: water) was 117 % of control, the T/C (dose: 3.12 mg/kg/injection, schedule: Q01DX005 (ip), vehicle: saline) was 117 % of control and the T/C (dose: 12.5 mg/kg/injection, schedule: Q01DX005 (ip), vehicle: water) was 116 % of control.
`CN(C)c1ccc(/C=N/NC(=O)C(=O)NCc2ccco2)cc1` was tested, and the T/C [9] was 94 % of control, the T/C [10] was 86 % of control and the T/C [11] was 91 % of control.
In the case of `COC(=O)c1ccc(N=NN(C)C)cc1`, the T/C [12] is reported as 100 % of control and 97 % of control, the T/C (dose: 25.0 mg/kg/injection, schedule: Q01DX009 (ip), vehicle: suspension in saline) is reported as 103 % of control and the T/C [13] is reported as 113 % of control and 92 % of control. For the same compound, the T/C (dose: 50.0 mg/kg/injection, schedule: Q01DX009 (ip), vehicle: suspension in saline) was 91 % of control, the T/C [14] was 103 % of control and 94 % of control and the T/C [15] was 108 % of control. The T/C (dose: 200.0 mg/kg/injection, schedule: Q01DX009 (ip), vehicle: suspension in saline) was 101 % of control.
With `COc1cccc(C[n+]2ccccc2C#N)c1` the T/C (dose: 12.5 mg/kg/injection, schedule: Q01DX009 (ip), vehicle: saline) was 100 % of control, the T/C [12] was 106 % of control and the T/C [13] was 100 % of control and 96 % of control.
For `O=c1oc2c(ccc3nc(-c4ccccc4)sc32)c(N2CCOCC2)c1Cl`, the T/C [3] was 92 % of control, the T/C [6] was 91 % of control and the T/C [16] was 89 % of control.
`Cn1c(=O)n2n(c1=O)C1CCC2CC1` was tested, and the T/C (dose: 50.0 mg/kg/injection, schedule: Q01DX005 (ip), vehicle: saline) was 98 % of control, the T/C (dose: 100.0 mg/kg/injection, schedule: Q01DX005 (ip), vehicle: saline) was 102 % of control and the T/C (dose: 200.0 mg/kg/injection, schedule: Q01DX005 (ip), vehicle: saline) was 100 % of control.
For `OCCOc1ccc2ccccc2c1-c1c(OCCO)ccc2ccccc12`, the T/C (dose: 50.0 mg/kg/injection, schedule: Q04DX003 (ip), vehicle: saline with Tween-80) was 100 % of control, the T/C (dose: 100.0 mg/kg/injection, schedule: Q04DX003 (ip), vehicle: saline with Tween-80) was 100 % of control and the T/C (dose: 200.0 mg/kg/injection, schedule: Q04DX003 (ip), vehicle: saline with Tween-80) was 100 % of control. For the same compound, the T/C (dose: 400.0 mg/kg/injection, schedule: Q04DX003 (ip), vehicle: saline with Tween-80) was 100 % of control.
`[CH3][Sn]([CH3])([O]S(=O)c1ccc(Cl)cc1)[O]S(=O)c1ccc(Cl)cc1` (stereo not given) was tested, and the T/C (dose: 100.0 mg/kg/injection, schedule: Q01DX001 (ip), vehicle: Klucel (hydroxypropylcellulose) (HPC)) was 114 % of control and the T/C (dose: 200.0 mg/kg/injection, schedule: Q01DX001 (ip), vehicle: Klucel (hydroxypropylcellulose) (HPC)) was 105 % of control.
For `COc1cc(C(=O)c2ccc3c(c2)OCO3)cc(OC)c1OC`, the T/C [3] was 98 % of control, the T/C [6] was 93 % of control and the T/C [16] was 99 % of control.
With `CC1(C(=O)O)CCCC2(C)C3=C(CCCC3)CCC12` (stereo not given) the T/C [10] was 104 % of control, the T/C [11] was 100 % of control and the T/C (dose: 400.0 mg/kg/injection, schedule: Q01DX009 (ip), vehicle: saline with Tween-80) was 95 % of control.
With `Oc1ccc(C(O)C2CCCCN2)cc1O` (stereo not given) the T/C [12] was 99 % of control, the T/C [13] was 108 % of control and the T/C [14] was 103 % of control. The T/C [15] was 108 % of control.
For `O=C(O)C(Cc1ccc(F)cc1)NC(=O)C(F)(F)F` (stereo not given), the T/C [9] was 95 % of control, the T/C [10] was 95 % of control and the T/C [11] was 100 % of control.
`NC1=C(O)C(=O)C(c2cccnc2)O1` (stereo not given) was tested, and the T/C (dose: 30.0 mg/kg/injection, schedule: Q01DX005 (ip), vehicle: Klucel (hydroxypropylcellulose) (HPC)) was 102 % of control, the T/C (dose: 60.0 mg/kg/injection, schedule: Q01DX005 (ip), vehicle: Klucel (hydroxypropylcellulose) (HPC)) was 96 % of control and the T/C (dose: 120.0 mg/kg/injection, schedule: Q01DX005 (ip), vehicle: Klucel (hydroxypropylcellulose) (HPC)) was 86 % of control and 93 % of control. The T/C (dose: 240.0 mg/kg/injection, schedule: Q01DX005 (ip), vehicle: Klucel (hydroxypropylcellulose) (HPC)) was 86 % of control.
`O=C1Cc2ccccc2N1` was tested, and the T/C [13] was 116 % of control, the T/C [14] was 107 % of control and the T/C [15] was 105 % of control.
For `CC(=O)NNC(=O)Nc1ccc(Cl)c(Cl)c1`, the T/C [8] was 108 % of control, the T/C [17] was 103 % of control and the T/C (dose: 200.0 mg/kg/injection, schedule: Q01DX009 (ip), vehicle: Klucel (hydroxypropylcellulose) (HPC)) was 91 % of control.
In the case of `CCn1c(=O)c2[nH]c(Cl)nc2n(CC(C)Cl)c1=O` (stereo not given), the T/C (dose: 12.5 mg/kg/injection, schedule: Q01DX009 (ip), vehicle: Klucel (hydroxypropylcellulose) (HPC)) is reported as 94 % of control, the T/C [7] is reported as 101 % of control and the T/C [8] is reported as 100 % of control and 103 % of control. For the same compound, the T/C [17] was 104 % of control.
In the case of `O=[N+]([O-])CC(OCCCCCCO)C(Cl)(Cl)Cl` (stereo not given), the T/C [9] is reported as 100 % of control and the T/C [10] is reported as 95 % of control.
With `COc1cc(C(=O)NCC(=O)NN=C(C)C)cc(OC)c1OC` the T/C [3] was 104 % of control, the T/C [6] was 95 % of control and the T/C [16] was 107 % of control.
In the case of `Nc1cc(=O)[nH]c(=S)n1-c1ccc(Br)cn1`, the T/C [4] is reported as 90 % of control, the T/C [5] is reported as 100 % of control and the T/C (dose: 400.0 mg/kg/injection, schedule: Q01DX001 (ip), vehicle: saline with Tween-80) is reported as 90 % of control.
With `CCc1c(NCCO)c(C(=O)NCCO)c2nc3ccccc3n2c1NCCO` the T/C (dose: 60.0 mg/kg/injection, schedule: Q01DX005 (ip), vehicle: saline with Tween-80) was 101 % of control, the T/C (dose: 120.0 mg/kg/injection, schedule: Q01DX005 (ip), vehicle: saline with Tween-80) was 99 % of control and the T/C (dose: 240.0 mg/kg/injection, schedule: Q01DX005 (ip), vehicle: saline with Tween-80) was 99 % of control.
With `COc1c2c(cc3c1-c1ccc(OC)c(=O)cc1C(NC(C)=O)CC3)OCO2` (stereo not given) the T/C (dose: 0.47 mg/kg/injection, schedule: Q01DX009 (ip), vehicle: distilled water + Tween-80) was 157 % of control, the T/C (dose: 0.94 mg/kg/injection, schedule: Q01DX009 (ip), vehicle: distilled water + Tween-80) was 166 % of control and the T/C (dose: 3.75 mg/kg/injection, schedule: Q01DX009 (ip), vehicle: distilled water + Tween-80) was 155 % of control. The T/C (dose: 7.5 mg/kg/injection, schedule: Q01DX009 (ip), vehicle: distilled water + Tween-80) was 161 % of control.
For `CN1C(=O)C2CC(=O)N(Cc3ccccc3)C(=O)C2C1=O` (stereo not given), the T/C (dose: 50.0 mg/kg/injection, schedule: Q01DX005 (ip), vehicle: saline with Tween-80) was 96 % of control, the T/C (dose: 100.0 mg/kg/injection, schedule: Q01DX005 (ip), vehicle: saline with Tween-80) was 87 % of control and the T/C (dose: 200.0 mg/kg/injection, schedule: Q01DX005 (ip), vehicle: saline with Tween-80) was 87 % of control.
With `COC1OC(COC(=O)c2ccccc2)C(=O)C(OC(=O)c2ccccc2)C1N(O)C1C(COC(=O)c2ccccc2)OC2OC(C)(C)OC21` (stereo not given) the T/C [3] was 101 % of control, the T/C [6] was 105 % of control and the T/C [16] was 100 % of control.
`CCc1nc2ccccc2c(=O)n1C(C)C` was tested, and the T/C (dose: 100.0 mg/kg/injection, schedule: Q04DX002 (ip), vehicle: saline) was 100 % of control, the T/C (dose: 200.0 mg/kg/injection, schedule: Q04DX002 (ip), vehicle: saline) was 106 % of control and the T/C (dose: 400.0 mg/kg/injection, schedule: Q04DX002 (ip), vehicle: saline) was 104 % of control.
